Measured values as given in US10774083B2, “Heterocyclic amide compound” (TAKEDA PHARMACEUTICAL COMPANY LIMITED, priority 2016, dated 2020).

Molecular target: T1, human PRS protein (His-Avi-hEPRS (998-1512)) (Homo sapiens, UniProt P07814)
T1 construct: to construct His-Avi-hEPRS (998-1512) expression plasmid; His tag (N); Avi tag (N); TEV cleavage site (ENLYFQG, then S; inferred from the forward primer hEPRS-TEV-NheF) (N); made in house; host or cells: E. coli BL21(DE3)
T1 sequence (P07814 998-1512 limits assumed): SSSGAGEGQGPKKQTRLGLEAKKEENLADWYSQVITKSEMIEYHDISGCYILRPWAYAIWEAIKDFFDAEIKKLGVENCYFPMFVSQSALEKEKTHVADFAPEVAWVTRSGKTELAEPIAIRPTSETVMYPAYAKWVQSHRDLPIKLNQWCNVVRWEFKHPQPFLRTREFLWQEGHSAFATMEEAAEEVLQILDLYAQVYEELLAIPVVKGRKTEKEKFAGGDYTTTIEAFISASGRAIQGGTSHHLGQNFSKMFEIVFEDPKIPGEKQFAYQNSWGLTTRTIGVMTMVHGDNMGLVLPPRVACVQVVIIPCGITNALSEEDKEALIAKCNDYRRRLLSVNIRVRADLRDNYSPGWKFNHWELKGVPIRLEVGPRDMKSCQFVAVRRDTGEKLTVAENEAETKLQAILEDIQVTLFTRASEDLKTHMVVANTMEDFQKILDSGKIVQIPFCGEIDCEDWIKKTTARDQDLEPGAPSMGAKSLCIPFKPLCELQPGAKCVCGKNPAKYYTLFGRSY
Experiment: PRS inhibitory activity ([32P]pyrophosphate exchange enzyme assay)
Type: biochemical
Settings: 300 nM test compound; 0.3 µM
Procedure: The PRS inhibitory activity of the compounds of the present invention was evaluated by the following method.
An expression plasmid of Catalytic Domain of human EPRS was obtained by PCR using human skeletal muscle cDNA Library (Takara Bio Inc.) as a template and 2 kinds of Primers 5′-[…]-3′ (hEPRS-TEV-NheF) (SEQ ID NO: 1) and 5′-[…]-3′ (hEPRS-St-Not-R) (SEQ ID NO: 2). PCR was performed using PrimeStar GXL DNA Polymerase (Takara Bio Inc.) and included (1) 98° C., 1 min, (2) 35 cycles of 98° C., 10 sec, 65° C., 10 sec, 72° C., 1 min, and (3) reaction at 72° C., 1 min. This was cleaved with Nhe I and Not I (Takara Bio Inc.) and inserted using Ligation High (TOYOBO CO., LTD.) into the Nhe I/Not I site of pET21a (Novagen) with His-Avitag inserted thereinto. This was introduced into ECOS JM109 (NIPPON GENE CO., LTD.) to construct His-Avi-hEPRS (998-1512) expression plasmid.
Recombinant human PRS protein was prepared by transforming the His-Avi-hEPRS (998-1512) expression plasmid prepared above into ECOS Competent E. coli BL21(DE3) (NIPPON GENE CO., LTD.). Escherichia coli obtained by transformation was inoculated into 300 mL of LB medium (1% peptone, 0.5% yeast extract, 0.5% sodium chloride, 0.01% ampicillin) and cultured at 30° C. for 16 hr. The obtained culture medium was transferred into a jar culture tank charged with 6 L of the main fermentation medium (0.3% potassium dihydrogen phosphate, 0.6% disodium hydrogen phosphate, 0.1% ammonium chloride, 0.05% sodium chloride, 0.024% magnesium sulfate, 0.02% NEWPOL LB-625, 1.5% sorbitol, 1.5% casamino acid, 0.5% yeast extract, 0.01% ampicillin) and culturing was started at 37° C., quantity of airflow 5 L/min, stirring rotating speed 400 rpm. At the time point when the turbidity of the culture medium reached about 550 Klett units, the culture temperature was lowered to 16° C., isopropyl-β-D-thiogalactopyranoside (IPTG) was added to the final concentration 0.1 mM, and culturing was performed for another 16 hr to induce expression of human PRS. After completion of culturing, the culture medium was centrifuged at 5,000 rpm for 10 min. The obtained human PRS expressing Escherichia coli was suspended in a buffer containing 50 mM Tris-HCl (pH 8.0), 150 mM NaCl, 1 mM DTT, 5 U/ml Benzonase, 20 mM Imidazole and sonicated using Sonifier (BRANSON). The homogenate was centrifuged (33,000×G, 60 min, Beckman Coulter), the obtained supernatant was subjected to adsorption by passage through Ni-NTA Superflow (QIAGEN) column equilibrated in advance with 50 mM Tris-HCl (pH 8.0), 300 mM NaCl, 1 mM DTT, and elution was performed with a buffer containing 50 mM Tris-HCl (pH 8.0), 300 mM NaCl, 1 mM DTT, 250 mM Imidazole. Furthermore, gel filtration was performed using Superdex200 pg column equilibrated in advance with a buffer containing 50 mM Tris-HCl (pH 8.0), 150 mM NaCl, 1 mM DTT, 10% glycerol to give purified human PRS protein. The protein concentration was measured using BCA Protein Assay Kit (PIERCE) and BSA as the standard.
A test compound was dissolved in 5 μL of an assay buffer (50 mM Tris-HCl (pH 7.5), 20 mM KCl, 1 mM DTT, 0.01% Tween 20) and incubated for 60 min with 5 μL of 40 nM human PRS protein dissolved in the assay buffer containing 40 mM MgCl2. An enzyme reaction of the human PRS protein was started by adding 10 μL of a substrate solution containing 300 μM ATP, 160 μM L-Proline, 400 μM pyrophosphate, [^32P]pyrophosphate (PerkinElmer) prepared to 1 MBq/mL. After incubation at room temperature for 30 min, the reaction was discontinued by adding 50 μL of discontinuation/washing solution (1M HCl, 200 mM sodium pyrophosphate) to the reaction mixture. The reaction solution was transferred to a filter plate (Merck Millipore, Billerica, Mass.) previously added with 200 μL of charcoal solution (0.5% HCl solution containing 10% charcoal (w/v)). […]

inhibitory rate (%) of PRS [%]	SMILES
99	Cn1cc(-c2cc(F)cc(CNC(=O)c3ncnc4nc(C5COCCO5)[nH]c34)c2)cn1 (centres unmarked) [Example 33, 8-(1,4-dioxan-2-yl)-N-(3-fluoro-5-(1-methyl-1H-pyrazol-4-yl)benzyl)-7H-purine-6-carboxamide]

Same assay, conditions: 300 nM test compound; read-out: inhibitory rate (%) of PRS

inhibition at 0.3 µM [%]	SMILES
91	Cc1cc(N2CCC(C#N)(CC3CC3)C2=O)cc(C(=O)NCc2cc(F)cc(-c3cnn(C)c3)c2)n1 (centres unmarked) [Example 230, 4-(3-cyano-3-(cyclopropylmethyl)-2-oxopyrrolidin-1-yl)-N-(3-fluoro-5-(1-methyl-1H-pyrazol-4-yl)benzyl)-6-methylpyridine-2-carboxamide]
86	Cc1cc(N2CC[C@@](C#N)(C3CC3)C2=O)cc(C(=O)NCc2cc(F)cc(-c3cncnc3)c2)n1 [Example 205, 4-((3S)-3-cyano-3-cyclopropyl-2-oxopyrrolidin-1-yl)-N-(3-fluoro-5-(pyrimidin-5-yl)benzyl)-6-methylpyridine-2-carboxamide]
98	O=C(NCc1cccc(Br)c1)c1nccc2nc(C3CCCC3)[nH]c12 [Example 82, N-(3-bromobenzyl)-2-cyclopentyl-3H-imidazo[4,5-c]pyridine-4-carboxamide]
97	Cn1c(C2CCCC2)nc2ccnc(C(=O)NCc3ccccc3Cl)c21 [Example 85, N-(2-chlorobenzyl)-2-cyclopentyl-3-methyl-3H-imidazo[4,5-c]pyridine-4-carboxamide]
77	Cn1cc(-c2cc(F)cc(CNC(=O)c3nc(Cl)nc4nc(C5CCCC5)[nH]c34)c2)cn1 [Example 12, 2-chloro-8-cyclopentyl-N-(3-fluoro-5-(1-methyl-1H-pyrazol-4-yl)benzyl)-7H-purine-6-carboxamide]
94	CCc1cc(N2CC[C@@](C#N)(C3CC3)C2=O)cc(C(=O)NCc2cc(F)cc(-c3cnn(C)c3)c2)n1 [Example 219, 4-((3S)-3-cyano-3-cyclopropyl-2-oxopyrrolidin-1-yl)-6-ethyl-N-(3-fluoro-5-(1-methyl-1H-pyrazol-4-yl)benzyl)pyridine-2-carboxamide]
74	Cc1nc(C(=O)NCc2cc(F)cc(-c3cnn(C)c3)c2)cc(N2CC[C@@](C#N)(C3CC3)C2=O)n1 [Example 237, 6-((3S)-3-cyano-3-cyclopropyl-2-oxopyrrolidin-1-yl)-N-(3-fluoro-5-(1-methyl-1H-pyrazol-4-yl)benzyl)-2-methylpyrimidine-4-carboxamide]
77	Cn1cc(-c2cc(CNC(=O)c3nccc4nc(C5CCCC5)n(C)c34)ccn2)cn1 [Example 136, 2-cyclopentyl-3-methyl-N-((2-(1-methyl-1H-pyrazol-4-yl)pyridin-4-yl)methyl)-3H-imidazo[4,5-c]pyridine-4-carboxamide]
101	Cn1cc(-c2cc(F)cc(CNC(=O)c3nccc4nc(C5CCCC5)n(CC5CC5)c34)c2)cn1 [Example 114, 2-cyclopentyl-3-(cyclopropylmethyl)-N-(3-fluoro-5-(1-methyl-1H-pyrazol-4-yl)benzyl)-3H-imidazo[4,5-c]pyridine-4-carboxamide]
85	Cn1cc(-c2csc(CNC(=O)c3cc(N4CC[C@@](C#N)(C5CC5)C4=O)ccn3)c2)cn1 [Example 157, 4-((3S)-3-cyano-3-cyclopropyl-2-oxopyrrolidin-1-yl)-N-((4-(1-methyl-1H-pyrazol-4-yl)-2-thienyl)methyl)pyridine-2-carboxamide]
92	Cn1ncc2cccc(CNC(=O)c3ncnc4nc(C5CCCC5)n(C)c34)c21 [Example 21, 8-cyclopentyl-7-methyl-N-((1-methyl-1H-indazol-7-yl)methyl)-7H-purine-6-carboxamide]
96	CC(C)c1nc2ccnc(C(=O)NCc3cc(F)cc(-c4cnn(C)c4)c3)c2[nH]1 [Example 99, N-(3-fluoro-5-(1-methyl-1H-pyrazol-4-yl)benzyl)-2-isopropyl-3H-imidazo[4,5-c]pyridine-4-carboxamide]
74	CC1(c2nc3ccnc(C(=O)NCc4ccccc4Cl)c3[nH]2)CCCC1 [Example 87, N-(2-chlorobenzyl)-2-(1-methylcyclopentyl)-3H-imidazo[4,5-c]pyridine-4-carboxamide]
102	Cn1cc(-c2cc(F)cc(CNC(=O)c3nccc4nc(C5CCCC5)n(C5CC5)c34)c2)cn1 [Example 108, 2-cyclopentyl-3-cyclopropyl-N-(3-fluoro-5-(1-methyl-1H-pyrazol-4-yl)benzyl)-3H-imidazo[4,5-c]pyridine-4-carboxamide]
98	O=C(NCc1cccc(-c2ccccc2)c1)c1nccc2nc(C3CCCC3)[nH]c12 [Example 83, N-(biphenyl-3-ylmethyl)-2-cyclopentyl-3H-imidazo[4,5-c]pyridine-4-carboxamide]
87	Cc1cc(N2CCC(C3CC3)C2=O)cc(C(=O)NCc2cc(F)cc(-c3cnn(C)c3)c2)n1 (centres unmarked) [Example 234, 4-(3-cyclopropyl-2-oxopyrrolidin-1-yl)-N-(3-fluoro-5-(1-methyl-1H-pyrazol-4-yl)benzyl)-6-methylpyridine-2-carboxamide]
83	Cc1cc(N2CC[C@@](C#N)(C3CC3)C2=O)cc(C(=O)NCc2cc(-c3cnn(C)c3)cc(C(F)(F)F)c2)n1 [Example 218, 4-((3S)-3-cyano-3-cyclopropyl-2-oxopyrrolidin-1-yl)-6-methyl-N-(3-(1-methyl-1H-pyrazol-4-yl)-5-(trifluoromethyl)benzyl)pyridine-2-carboxamide]
69	Cn1cc(-c2cc(F)cc(CNC(=O)c3nccc4nc(C5CCCC5)n(Cc5ccccc5)c34)c2)cn1 [Example 123, 3-benzyl-2-cyclopentyl-N-(3-fluoro-5-(1-methyl-1H-pyrazol-4-yl)benzyl)-3H-imidazo[4,5-c]pyridine-4-carboxamide]
66	Cn1cc(-c2cc(F)cc(CNC(=O)c3cc(N4CC[C@@](C#N)(C5CC5)C4=O)cc(C4CC4)n3)c2)cn1 [Example 225, 4-((3S)-3-cyano-3-cyclopropyl-2-oxopyrrolidin-1-yl)-6-cyclopropyl-N-(3-fluoro-5-(1-methyl-1H-pyrazol-4-yl)benzyl)pyridine-2-carboxamide]
